What was measured:
[1] = target: human Class I PI3 kinase γ (Homo sapiens (Human), UniProt P48736); assay: PI3-Kinase Promega ADP-Glo Max assay, γ isoform; type: biochemical; settings: 40 nM kinase, 3 mM ATP, 500 uM diC8-PtdInsP; read-out: Promega γ PI3K IC50
Description: Promega ADP-Glo Max assay kit (Cat. No. V7002) was utilized to determine IC50 values for α, β, δ and γ isoforms of human Class I PI3 kinases (Millipore). Samples of kinase (20 nM α or δ, 40 nM β or γ isoform) were incubated with compound for 15 minutes at room temperature in reaction buffer (15 mM HEPES pH 7.4, 20 mM NaCl, 1 mM EGTA, 0.02% Tween 20, 10 mM MgCl2, 0.2 mg/mL bovine-γ-globulins) followed by addition of ATP/diC8-PtdInsP mixture to give final concentrations of 3 mM ATP and 500 uM diC8-PtdInsP. Reactions were incubated at room temperature for 2 hours followed by addition of 25 uL of stop solution. After a 40-minute incubation at room temperature, 50 uL of Promega detection mix was added followed by incubation for 1 hour at room temperature. Plates were then read on Envision plate reader in luminescence mode. Data was converted to % inhibition using the following equation below:
[formula] where S is the sample luminescence, Pos is a positive control without added PI3K, Neg is the negative control without added compound. Data was then plotted as % inhibition vs compound concentration.
Certain compounds provided herein were tested in PI3-Kinase Promega Assay using procedures as described above to determine IC50 values for α, β, δ and/or γ isoforms.

[2] = target: human Class I PI3 kinase α (Homo sapiens (Human), UniProt P42336); assay: PI3-Kinase Promega ADP-Glo Max assay, α isoform; type: biochemical; settings: 20 nM kinase, 3 mM ATP, 500 uM diC8-PtdInsP; read-out: Promega α PI3K IC50
Sequence of human Class I PI3 kinase α (P42336 whole entry, canonical isoform): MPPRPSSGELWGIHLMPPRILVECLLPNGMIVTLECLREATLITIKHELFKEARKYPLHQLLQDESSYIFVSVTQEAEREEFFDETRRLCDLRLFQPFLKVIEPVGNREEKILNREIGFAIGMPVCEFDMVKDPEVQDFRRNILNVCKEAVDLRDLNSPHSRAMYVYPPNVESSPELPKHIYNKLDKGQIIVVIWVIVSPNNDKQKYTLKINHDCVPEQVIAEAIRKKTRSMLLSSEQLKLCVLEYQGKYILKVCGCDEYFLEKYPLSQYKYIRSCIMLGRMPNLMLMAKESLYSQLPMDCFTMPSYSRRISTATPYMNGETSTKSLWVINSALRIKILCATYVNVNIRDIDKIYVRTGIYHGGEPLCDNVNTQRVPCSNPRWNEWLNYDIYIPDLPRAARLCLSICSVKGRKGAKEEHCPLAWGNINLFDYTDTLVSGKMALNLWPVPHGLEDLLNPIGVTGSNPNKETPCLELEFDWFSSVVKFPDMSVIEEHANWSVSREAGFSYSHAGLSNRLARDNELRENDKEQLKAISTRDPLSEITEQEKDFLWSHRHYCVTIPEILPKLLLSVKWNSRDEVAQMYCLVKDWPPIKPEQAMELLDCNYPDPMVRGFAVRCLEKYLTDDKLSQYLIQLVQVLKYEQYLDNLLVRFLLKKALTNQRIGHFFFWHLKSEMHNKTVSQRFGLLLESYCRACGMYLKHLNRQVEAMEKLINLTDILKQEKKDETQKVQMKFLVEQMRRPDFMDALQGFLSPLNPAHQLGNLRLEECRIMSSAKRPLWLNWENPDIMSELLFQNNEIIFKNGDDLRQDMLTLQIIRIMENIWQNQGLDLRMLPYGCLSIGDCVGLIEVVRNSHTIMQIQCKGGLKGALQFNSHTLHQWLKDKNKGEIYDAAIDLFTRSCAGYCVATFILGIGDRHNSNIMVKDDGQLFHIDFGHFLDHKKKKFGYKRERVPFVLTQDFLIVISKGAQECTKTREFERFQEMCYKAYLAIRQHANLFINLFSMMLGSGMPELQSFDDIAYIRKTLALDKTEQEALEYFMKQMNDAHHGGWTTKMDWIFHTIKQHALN
Sequence of human Class I PI3 kinase α (P27986 whole entry partner, canonical isoform): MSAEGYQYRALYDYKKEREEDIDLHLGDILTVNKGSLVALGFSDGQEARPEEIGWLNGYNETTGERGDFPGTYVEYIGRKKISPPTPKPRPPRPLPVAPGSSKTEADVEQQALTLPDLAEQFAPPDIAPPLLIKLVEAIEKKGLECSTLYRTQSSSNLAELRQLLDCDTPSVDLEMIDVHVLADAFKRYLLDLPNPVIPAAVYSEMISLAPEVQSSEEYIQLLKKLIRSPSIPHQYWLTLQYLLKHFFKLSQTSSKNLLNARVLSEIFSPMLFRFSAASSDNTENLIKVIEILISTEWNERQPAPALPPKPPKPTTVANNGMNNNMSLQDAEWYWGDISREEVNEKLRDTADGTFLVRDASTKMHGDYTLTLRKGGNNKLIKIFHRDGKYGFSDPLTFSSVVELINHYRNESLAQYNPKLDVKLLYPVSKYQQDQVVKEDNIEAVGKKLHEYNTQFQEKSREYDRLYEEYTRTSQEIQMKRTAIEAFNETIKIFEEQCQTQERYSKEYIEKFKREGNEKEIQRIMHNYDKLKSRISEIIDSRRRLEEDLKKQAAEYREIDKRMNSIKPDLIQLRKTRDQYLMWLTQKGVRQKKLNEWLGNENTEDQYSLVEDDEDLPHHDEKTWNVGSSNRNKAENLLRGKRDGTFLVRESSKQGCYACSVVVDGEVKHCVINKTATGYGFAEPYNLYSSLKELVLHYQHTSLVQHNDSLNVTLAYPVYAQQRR
Description: (§1) Promega ADP-Glo Max assay kit (Cat. No. V7002) was utilized to determine IC50 values for α, β, δ and γ isoforms of human Class I PI3 kinases (Millipore). […] Reactions were incubated at room temperature for 2 hours followed by addition of 25 uL of stop solution. After a 40-minute incubation at room temperature, 50 uL of Promega detection mix was added followed by incubation for 1 hour at room temperature. Plates were then read on Envision plate reader in luminescence mode. Data was converted to % inhibition using the following equation below: [formula] where S is the sample luminescence, Pos is a positive control without added PI3K, Neg is the negative control without added compound. Data was then plotted as % inhibition vs compound concentration.

[3] = target: human Class I PI3 kinase δ (Homo sapiens (Human), UniProt O00329); assay: PI3-Kinase Promega ADP-Glo Max assay, δ isoform; type: biochemical; settings: 20 nM kinase, 3 mM ATP, 500 uM diC8-PtdInsP; read-out: Promega δ PI3K IC50
Sequence of human Class I PI3 kinase δ (O00329 whole entry, canonical isoform): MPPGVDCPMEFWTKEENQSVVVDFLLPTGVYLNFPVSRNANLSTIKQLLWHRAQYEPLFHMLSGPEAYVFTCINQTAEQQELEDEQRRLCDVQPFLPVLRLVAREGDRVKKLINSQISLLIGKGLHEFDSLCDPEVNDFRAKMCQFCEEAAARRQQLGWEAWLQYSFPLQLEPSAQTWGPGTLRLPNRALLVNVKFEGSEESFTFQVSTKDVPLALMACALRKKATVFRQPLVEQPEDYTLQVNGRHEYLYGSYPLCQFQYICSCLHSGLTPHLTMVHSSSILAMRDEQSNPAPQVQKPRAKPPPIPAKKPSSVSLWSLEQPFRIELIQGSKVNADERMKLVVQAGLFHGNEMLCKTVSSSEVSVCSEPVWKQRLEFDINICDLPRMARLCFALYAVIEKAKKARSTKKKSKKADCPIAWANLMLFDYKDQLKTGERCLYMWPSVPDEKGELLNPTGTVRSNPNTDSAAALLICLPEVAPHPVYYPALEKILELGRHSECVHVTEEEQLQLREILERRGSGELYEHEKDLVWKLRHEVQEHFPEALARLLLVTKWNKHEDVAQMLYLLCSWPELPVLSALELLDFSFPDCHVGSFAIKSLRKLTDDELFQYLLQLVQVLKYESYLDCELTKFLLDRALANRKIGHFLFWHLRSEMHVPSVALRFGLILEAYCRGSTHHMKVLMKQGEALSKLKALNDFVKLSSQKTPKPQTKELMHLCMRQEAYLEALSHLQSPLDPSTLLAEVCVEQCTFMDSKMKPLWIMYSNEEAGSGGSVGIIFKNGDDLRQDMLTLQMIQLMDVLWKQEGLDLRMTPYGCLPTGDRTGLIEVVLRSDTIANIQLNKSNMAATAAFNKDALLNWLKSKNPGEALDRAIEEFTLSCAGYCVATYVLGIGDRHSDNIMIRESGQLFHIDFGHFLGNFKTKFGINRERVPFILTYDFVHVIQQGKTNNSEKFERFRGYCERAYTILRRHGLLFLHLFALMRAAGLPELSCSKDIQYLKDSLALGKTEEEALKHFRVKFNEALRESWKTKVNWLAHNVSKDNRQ
Sequence of human Class I PI3 kinase δ (P27986 whole entry partner, canonical isoform): as the sequence (P27986 whole entry partner, canonical isoform) above
Description: as §1

[4] = target: human Class I PI3 kinase β (Homo sapiens (Human), UniProt P42338); assay: PI3-Kinase Promega ADP-Glo Max assay, β isoform; type: biochemical; settings: 40 nM kinase, 3 mM ATP, 500 uM diC8-PtdInsP; read-out: Promega β PI3K IC50
Sequence of human Class I PI3 kinase β (P42338 whole entry, looked up, canonical isoform): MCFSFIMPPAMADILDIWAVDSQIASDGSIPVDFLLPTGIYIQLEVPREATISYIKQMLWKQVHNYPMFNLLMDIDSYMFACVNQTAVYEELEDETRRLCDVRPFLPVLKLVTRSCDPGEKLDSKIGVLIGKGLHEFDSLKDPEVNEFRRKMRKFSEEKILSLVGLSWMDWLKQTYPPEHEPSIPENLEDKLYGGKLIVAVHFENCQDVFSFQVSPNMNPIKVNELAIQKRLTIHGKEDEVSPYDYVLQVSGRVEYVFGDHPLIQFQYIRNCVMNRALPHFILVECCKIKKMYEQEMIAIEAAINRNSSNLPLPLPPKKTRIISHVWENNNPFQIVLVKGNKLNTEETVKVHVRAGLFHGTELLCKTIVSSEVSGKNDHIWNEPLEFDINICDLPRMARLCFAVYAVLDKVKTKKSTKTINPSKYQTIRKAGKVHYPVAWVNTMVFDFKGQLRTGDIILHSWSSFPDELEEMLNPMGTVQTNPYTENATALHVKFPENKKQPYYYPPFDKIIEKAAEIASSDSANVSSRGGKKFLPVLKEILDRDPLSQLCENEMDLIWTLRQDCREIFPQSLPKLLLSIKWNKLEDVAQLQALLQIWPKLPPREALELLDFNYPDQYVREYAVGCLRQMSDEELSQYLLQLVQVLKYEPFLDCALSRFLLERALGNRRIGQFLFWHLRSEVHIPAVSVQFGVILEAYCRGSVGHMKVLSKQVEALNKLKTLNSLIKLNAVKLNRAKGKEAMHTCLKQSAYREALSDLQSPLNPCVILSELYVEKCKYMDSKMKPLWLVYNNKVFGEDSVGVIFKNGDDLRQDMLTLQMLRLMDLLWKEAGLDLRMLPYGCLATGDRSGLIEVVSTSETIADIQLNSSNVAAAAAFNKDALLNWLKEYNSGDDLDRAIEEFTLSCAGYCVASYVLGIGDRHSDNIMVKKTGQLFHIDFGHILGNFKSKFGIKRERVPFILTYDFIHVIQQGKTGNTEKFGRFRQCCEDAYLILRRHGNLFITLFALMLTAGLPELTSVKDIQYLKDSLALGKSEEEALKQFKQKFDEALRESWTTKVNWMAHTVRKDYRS
Sequence of human Class I PI3 kinase β (P27986 whole entry partner, looked up, canonical isoform): as the sequence (P27986 whole entry partner, canonical isoform) above
Description: Promega ADP-Glo Max assay kit (Cat. No. V7002) was utilized to determine IC50 values for α, β, δ and γ isoforms of human Class I PI3 kinases (Millipore). […] Reactions were incubated at room temperature for 2 hours followed by addition of 25 uL of stop solution. After a 40-minute incubation at room temperature, 50 uL of Promega detection mix was added followed by incubation for 1 hour at room temperature. Plates were then read on Envision plate reader in luminescence mode. Data was converted to % inhibition using the following equation below:

p110 δ (RAJI cells) = p110 δ (RAJI cells) (Homo sapiens (Human), UniProt O00329); assay: PI3K-δ selective cellular assay: phospho-AKT in anti-human IgM stimulated RAJI cells; type: cell-based; settings: serum-starved RAJI cells stimulated with anti-human IgM
Sequence of p110 δ (RAJI cells) (O00329 whole entry): as the sequence (O00329 whole entry, canonical isoform) above
Sequence of p110 δ (RAJI cells) (P27986 whole entry partner): as the sequence (P27986 whole entry partner, canonical isoform) above
Description: A compound's ability in selectively inhibiting PI3K-δ can be assessed using RAJI cells, i.e., B lymphocyte cells derived from lymphoma patients. Briefly, serum-starved RAJI cells are stimulated with anti-human IgM, thereby causing signaling through the B-cell receptors, as described in, for example, He et al., Leukemia Research (2009) 33: 798-802. B-cell receptor signaling is important for the activation, differentiation, and survival of B cells and certain B-cell derived cancers. Reduction of phospho-AKT is indicative of compounds that may inhibit B-cell proliferation and function in certain diseases. […] Certain compounds provided herein were tested in RAJI cell model using procedures as described above.

p110 γ (RAW264.7 cells) = p110 γ (RAW264.7 cells) (Mus musculus (Mouse), UniProt Q9JHG7); assay: PI3K-γ selective cellular assay: phospho-AKT in C5a stimulated RAW264.7 macrophages; type: cell-based; settings: serum-starved RAW264.7 cells stimulated with C5a
Description: Certain compounds provided herein were tested in RAW 264.7 cell model using procedures as described above.

SMILES	IC50 [1] [nM]	IC50 [2] [nM]	IC50 [3] [nM]	IC50 [4] [nM]	IC50 (p110 δ (RAJI cells)) [nM]	IC50 (p110 γ (RAW264.7 cells)) [nM]
C[C@H](NC(=O)c1c(N)nn2cccnc12)c1cc2cccc(Cl)c2c(=O)n1CCS(=O)(=O)N(C)C [Compound 58]	10 to 100	500 to 1000	100 to 500	500 to 1000	10 to 100	1 to 10
C[C@H](NC(=O)c1c(N)nn2cccnc12)c1nc2c(Cl)cccc2c(=O)n1-c1ccccc1 [Compound 87]	1000 to 10000	1000 to 10000	1000 to 10000	1000 to 10000	100 to 500	100 to 500
C[C@H](NC(=O)c1c(N)nn2cccnc12)c1nc2ccccc2c(=O)n1-c1ccccc1 [Compound 95]	100 to 500	1000 to 10000	500 to 1000	1000 to 10000	10 to 100	10 to 100
C[C@H](NC(=O)c1c(N)nn2cccnc12)c1cc2cccc(Cl)c2c(=O)n1-c1ccccc1NS(C)(=O)=O [Compound 78]	100 to 500	1000 to 10000	1000 to 10000	1000 to 10000	100 to 500	10 to 100
C[C@H](NC(=O)c1c(N)nn2cccnc12)c1oc2ccc(F)cc2c(=O)c1-c1ccccc1 [Compound 96]	1000 to 10000	1000 to 10000	1000 to 10000	1000 to 10000	100 to 500	100 to 500
CCn1cc(-c2cccc3cc([C@H](C)NC(=O)c4c(N)nn5cccnc45)n(-c4ccccc4)c(=O)c23)cn1 [Compound 5]	100 to 500	1000 to 10000	1000 to 10000	1000 to 10000	100 to 500	10 to 100
Cc1cccc(-n2c([C@H](C)NC(=O)c3c(N)nn4cccnc34)cc3cccc(Cl)c3c2=O)c1 [Compound 74]	100 to 500	1000 to 10000	500 to 1000	1000 to 10000	10 to 100	10 to 100
C[C@H](NC(=O)c1c(N)nn2cccnc12)c1cc2cccc(Cl)c2c(=O)n1CCc1cnn[nH]1 [Compound 63]	500 to 1000	1000 to 10000	1000 to 10000	100 to 500	100 to 500	500 to 1000
C[C@H](NC(=O)c1c(N)nn2cccnc12)c1nc2cccc(N3CCOCC3)c2c(=O)n1-c1ccccc1 [Compound 90]	1000 to 10000	1000 to 10000	1000 to 10000	1000 to 10000	1000 to 10000	500 to 1000
C[C@H](NC(=O)c1c(N)nn2cccnc12)c1cc2cccc(Cl)c2c(=O)n1-c1ccc(O)cc1 [Compound 70]	10 to 100	1000 to 10000	100 to 500	1 to 10	1 to 10	10 to 100
C[C@H](NC(=O)c1c(N)nn2cccnc12)c1cc2cccc(Cl)c2c(=O)n1-c1cccc(O)c1 [Compound 69]	10 to 100	1000 to 10000	100 to 500	10 to 100	1 to 10	10 to 100
COc1ccccc1-n1c([C@H](C)NC(=O)c2c(N)nn3cccnc23)cc2cccc(Cl)c2c1=O [Compound 85]	100 to 500	1000 to 10000	500 to 1000	500 to 1000	100 to 500	10 to 100
C[C@H](NC(=O)c1c(N)nn2cccnc12)c1cc2cccc(Cl)c2c(=O)n1CCc1ccccc1 [Compound 15]	1000 to 10000	1000 to 10000	1000 to 10000	1000 to 10000	10 to 100	100 to 500
C[C@H](NC(=O)c1c(N)nn2cccnc12)c1cc2cccc(OCc3cnn(C)c3)c2c(=O)n1-c1ccccc1 [Compound 67]	500 to 1000	1000 to 10000	1000 to 10000	1000 to 10000	1000 to 10000	10 to 100
C[C@H](NC(=O)c1c(N)nn2cccnc12)c1cc2cccc(Cl)c2c(=O)n1CCc1noc(C(C)(C)C)n1 [Compound 64]	1000 to 10000	1000 to 10000	1000 to 10000	1000 to 10000	100 to 500	100 to 500
C[C@H](NC(=O)c1c(N)nn2cccnc12)c1nc2cccc(Cl)c2c(=O)n1-c1ccc(F)c(F)c1 [Compound 91]	500 to 1000	1000 to 10000	1000 to 10000	1000 to 10000	100 to 500	10 to 100
C[C@H](NC(=O)c1c(N)ncn2ccnc12)c1cc2cccc(Cl)c2c(=O)n1-c1ccccc1 [Compound 43]	10 to 100	1000 to 10000	100 to 500	1000 to 10000	1 to 10	1 to 10
C#CCCn1c([C@H](C)NC(=O)c2c(N)nn3cccnc23)cc2cccc(Cl)c2c1=O [Compound 62]	500 to 1000	1000 to 10000	1000 to 10000	500 to 1000	100 to 500	10 to 100
Cc1noc(CCn2c([C@H](C)NC(=O)c3c(N)nn4cccnc34)cc3cccc(Cl)c3c2=O)n1 [Compound 18]	1000 to 10000	1000 to 10000	1000 to 10000	1000 to 10000	10 to 100	100 to 500
C[C@H](NC(=O)c1c(N)nn2cccnc12)c1cc2cccc(Cl)c2c(=O)n1Cc1nnn[nH]1 [Compound 17]	100 to 500	1000 to 10000	1000 to 10000	1000 to 10000	1000 to 10000	500 to 1000
Cc1cccc2c(=O)n(-c3ccccc3)c([C@H](C)NC(=O)c3c(N)nn4cccnc34)nc12 [Compound 92]	1000 to 10000	1000 to 10000	1000 to 10000	1000 to 10000	100 to 500	100 to 500
C[C@H](NC(=O)c1c(N)nn2cccnc12)c1cc2cccc(Cl)c2c(=O)n1-c1cccc(S(C)(=O)=O)c1 [Compound 77]	500 to 1000	1000 to 10000	1000 to 10000	500 to 1000	100 to 500	100 to 500
C[C@H](NC(=O)c1c(N)nn2cccnc12)c1cc2cccc(Cl)c2c(=O)n1CCNS(C)(=O)=O [Compound 13]	10 to 100	1000 to 10000	1000 to 10000	500 to 1000	10 to 100	100 to 500
C[C@H](NC(=O)c1c(N)nn2cccnc12)c1cc2cccc(Cl)c2c(=O)n1-c1ccc(S(C)(=O)=O)cc1 [Compound 80]	1000 to 10000	1000 to 10000	1000 to 10000	1000 to 10000	500 to 1000	1000 to 10000
C[C@H](NC(=O)c1c(N)nn2cccnc12)c1cc2cccc(Cl)c2c(=O)n1CCc1nnn(C)n1 [Compound 56]	1000 to 10000	1000 to 10000	1000 to 10000	500 to 1000	10 to 100	100 to 500
C[C@H](NC(=O)c1nccnc1N)c1cc2cccc(C(F)(F)F)c2c(=O)n1-c1ccccc1 [Compound 52]	500 to 1000	1000 to 10000	500 to 1000	1000 to 10000	10 to 100	10 to 100
C[C@H](NC(=O)c1c(N)nn2cccnc12)c1cc2cccc(Cl)c2c(=O)n1-c1ccccc1S(C)(=O)=O [Compound 83]	1000 to 10000	1000 to 10000	1000 to 10000	1000 to 10000	1000 to 10000	500 to 1000
C[C@H](NC(=O)c1c(N)nn2cccnc12)c1cc2cccc(Cl)c2c(=O)n1-c1ccccc1F [Compound 84]	100 to 500	1000 to 10000	500 to 1000	100 to 500	10 to 100	10 to 100
CC(C)C(=O)Cc1cccc2cc([C@H](C)NC(=O)c3c(N)nn4cccnc34)n(-c3ccccc3)c(=O)c12 [Compound 65]	1000 to 10000	1000 to 10000	1000 to 10000	1000 to 10000	100 to 500	10 to 100

Source: patent publication US9751888B2, “Heterocyclic compounds and uses thereof” (Infinity Pharmaceuticals, Inc., priority 2013, dated 2017)
